Experimental data published in article PMC10465243, “Identification of sucrose synthase from Micractinium conductrix to favor biocatalytic glycosylation” (Frontiers in Microbiology, 2023).

Target: T1, UGT76G1 (Stevia rebaudiana, UniProt Q6VAB4, S195Q)
T1 construct: codon-optimised gene in pRSFDuet-1 (NdeI/XhoI), co-expressed with a SuSy in E. coli BL21(DE3), crude extract
Test: HPLC of RebD and RebM, one-pot coupled with McSuSy S31D, E. coli crude extract
Type: biochemical
Settings: sucrose, UDP recycling, potassium phosphate pH 7.2, 40°C; RebD formed in situ as intermediate

T1 sequence (Q6VAB4 whole entry S195Q): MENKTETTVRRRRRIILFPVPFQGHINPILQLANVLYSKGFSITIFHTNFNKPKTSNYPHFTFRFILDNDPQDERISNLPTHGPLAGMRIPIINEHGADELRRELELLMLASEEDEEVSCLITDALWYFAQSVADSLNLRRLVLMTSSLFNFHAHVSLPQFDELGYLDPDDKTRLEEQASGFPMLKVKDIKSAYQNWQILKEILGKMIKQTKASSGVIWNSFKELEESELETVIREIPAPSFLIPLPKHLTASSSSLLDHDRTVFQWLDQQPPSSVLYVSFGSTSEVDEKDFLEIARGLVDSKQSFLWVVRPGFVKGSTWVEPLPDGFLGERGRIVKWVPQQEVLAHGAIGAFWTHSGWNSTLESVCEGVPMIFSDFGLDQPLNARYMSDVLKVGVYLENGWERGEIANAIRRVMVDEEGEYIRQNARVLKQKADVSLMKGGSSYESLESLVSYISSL

C=C1C[C@@]23CC[C@H]4[C@@](C)(CCC[C@@]4(C)C(=O)O[C@@H]4O[C@H](CO)[C@@H](O)[C@H](O)[C@H]4O[C@@H]4O[C@H](CO)[C@@H](O)[C@H](O)[C@H]4O)[C@@H]2CC[C@]1(O[C@@H]1O[C@H](CO)[C@@H](O)[C@H](O[C@@H]2O[C@H](CO)[C@@H](O)[C@H](O)[C@H]2O)[C@H]1O[C@@H]1O[C@H](CO)[C@@H](O)[C@H](O)[C@H]1O)C3 [RebD]
HPLC of RebD and RebM, one-pot coupled with McSuSy S31D, E. coli crude extract: second glycosylation reaction that RebD was converted into RebM by UGT76G1_S195Q
